Results published in PubChem BioAssay AID290 (DTP/NCI, 2004).
Where “and” joins values, the source holds several entries; their conditions need not be identical. Equal values may be shown once. Inconclusive results are not listed.

System: mice, P1798 lymphosarcoma sc, survival or tumor weight T/C
Experiment: NCI In Vivo Anticancer Drug Screen. Data for tumor model P1798 Lymphosarcoma (subcutaneous) in unknown mice
Protocol: The antitumor activity of compounds was measured in mice bearing transplantable tumors. Survival or tumor size were measured and the results are expressed as the measurement made in the treated group (T) divided by the measurement made in the vehicle treated control group (C). The tumor model used in this assay is P1798 Lymphosarcoma (subcutaneous) in unknown mice

[1] = endpoint: mean tumor weight, dose: 10.0 mg/kg/injection, schedule: Q01DX010 (ip), vehicle: saline, higher = larger tumour
[2] = endpoint: mean tumor weight, dose: 12.5 mg/kg/injection, schedule: Q01DX010 (ip), vehicle: carboxymethylcellulose (CMC), higher = larger tumour
[3] = endpoint: mean tumor weight, dose: 25.0 mg/kg/injection, schedule: Q01DX010 (ip), vehicle: carboxymethylcellulose (CMC), higher = larger tumour

With Cn1cnc([N+](=O)[O-])c1Sc1nc(N)nc2nc[nH]c12 the T/C (endpoint: mean tumor weight, dose: 2.5 mg/kg/injection, schedule: Q01DX010 (ip), vehicle: saline, higher = larger tumour) was 53 % of control, the T/C (endpoint: mean tumor weight, dose: 5.0 mg/kg/injection, schedule: Q01DX010 (ip), vehicle: saline, higher = larger tumour) was 62 % of control and the T/C [1] was 37 % of control.

O=C(O)c1ccc(-c2ccccc2)cc1 was tested, and the T/C (endpoint: mean tumor weight, dose: 62.5 mg/kg/injection, schedule: Q01DX010 (ip), vehicle: carboxymethylcellulose (CMC), higher = larger tumour) was 101 % of control, the T/C (endpoint: mean tumor weight, dose: 125.0 mg/kg/injection, schedule: Q01DX010 (ip), vehicle: carboxymethylcellulose (CMC), higher = larger tumour) was 92 % of control and the T/C (endpoint: mean tumor weight, dose: 250.0 mg/kg/injection, schedule: Q01DX010 (ip), vehicle: carboxymethylcellulose (CMC), higher = larger tumour) was 95 % of control.

For O=C(O)CCCc1ccc(N(CCCl)CCCl)cc1, the T/C (endpoint: mean tumor weight, dose: 3.12 mg/kg/injection, schedule: Q01DX010 (ip), vehicle: carboxymethylcellulose (CMC), higher = larger tumour) was 86 % of control, the T/C (endpoint: mean tumor weight, dose: 6.25 mg/kg/injection, schedule: Q01DX010 (ip), vehicle: carboxymethylcellulose (CMC), higher = larger tumour) was 89 % of control and the T/C [2] was 104 % of control. For the same compound, the T/C [3] was 73 % of control.

For CCCCCCCCCCCCCCCCC(C(=O)O)C(O)(CC(=O)O)C(=O)O (stereo not given), the T/C [2] was 84 % of control and the T/C [3] was 87 % of control.

For O=[n+]1c2c(n([O-])c3ccccc31)-c1cccc3cccc-2c13, the T/C (endpoint: mean tumor weight, dose: 25.0 mg/kg/injection, schedule: Q01DX010 (ip), vehicle: saline, higher = larger tumour) was 84 % of control, the T/C (endpoint: mean tumor weight, dose: 50.0 mg/kg/injection, schedule: Q01DX010 (ip), vehicle: saline, higher = larger tumour) was 37 % of control and the T/C (endpoint: mean tumor weight, dose: 100.0 mg/kg/injection, schedule: Q01DX010 (ip), vehicle: saline, higher = larger tumour) was 36 % of control. For the same compound, the T/C (endpoint: mean tumor weight, dose: 200.0 mg/kg/injection, schedule: Q01DX010 (ip), vehicle: saline, higher = larger tumour) was 19 % of control.

CS(=O)(=O)OCCCl was tested, and the T/C [3] was 89 % of control and the T/C (endpoint: mean tumor weight, dose: 50.0 mg/kg/injection, schedule: Q01DX010 (ip), vehicle: carboxymethylcellulose (CMC), higher = larger tumour) was 88 % of control.

In the case of Nc1nc(SCc2ccccc2)c2[nH]cnc2n1, the T/C (endpoint: mean tumor weight, dose: 4.7 mg/kg/injection, schedule: Q01DX010 (ip), vehicle: carboxymethylcellulose (CMC), higher = larger tumour) is reported as 42 % of control and the T/C (endpoint: mean tumor weight, dose: 9.4 mg/kg/injection, schedule: Q01DX010 (ip), vehicle: carboxymethylcellulose (CMC), higher = larger tumour) is reported as 51 % of control.

With O=P1(N(CCCl)CCCl)NCCCO1 (stereo not given) the T/C (endpoint: mean tumor weight, dose: 6.3 mg/kg/injection, schedule: Q01DX010 (ip), vehicle: saline, higher = larger tumour) was 113 % of control and 107 % of control, the T/C (endpoint: mean tumor weight, dose: 13.0 mg/kg/injection, schedule: Q01DX011 (ip), vehicle: saline, higher = larger tumour) was 86 % of control and the T/C (endpoint: mean tumor weight, dose: 26.5 mg/kg/injection, schedule: Q01DX011 (ip), vehicle: saline, higher = larger tumour) was 121 % of control. For the same compound, the T/C (endpoint: mean tumor weight, dose: 40.0 mg/kg/injection, schedule: Q01DX011 (ip), vehicle: saline, higher = larger tumour) was 26 % of control, the T/C (endpoint: median survival time, dose: 3.12 mg/kg/injection, schedule: Q01DX010 (ip), vehicle: saline, higher = longer survival) was 80 % of control and the T/C (endpoint: median survival time, dose: 6.25 mg/kg/injection, schedule: Q01DX010 (ip), vehicle: saline, higher = longer survival) was 97 % of control. For the same compound, the T/C (endpoint: median survival time, dose: 6.3 mg/kg/injection, schedule: Q07DX005 (ip), vehicle: saline, higher = longer survival) was 99 % of control, the T/C (endpoint: median survival time, dose: 12.5 mg/kg/injection, schedule: Q01DX001 (ip), vehicle: saline, higher = longer survival) was 107 % of control and the T/C (endpoint: median survival time, dose: 12.5 mg/kg/injection, schedule: Q01DX010 (ip), vehicle: saline, higher = longer survival) was 96 % of control and 103 % of control (2×). The T/C (endpoint: median survival time, dose: 12.5 mg/kg/injection, schedule: Q07DX005 (ip), vehicle: saline, higher = longer survival) was 106 % of control, the T/C (endpoint: median survival time, dose: 25.0 mg/kg/injection, schedule: Q01DX001 (ip), vehicle: saline, higher = longer survival) was 92 % of control (2×) and 101 % of control and the T/C (endpoint: median survival time, dose: 25.0 mg/kg/injection, schedule: Q01DX010 (ip), vehicle: saline, higher = longer survival) was 46 % of control and 98 % of control (2×). The T/C (endpoint: median survival time, dose: 25.0 mg/kg/injection, schedule: Q07DX005 (ip), vehicle: saline, higher = longer survival) was 103 % of control, the T/C (endpoint: median survival time, dose: 50.0 mg/kg/injection, schedule: Q01DX001 (ip), vehicle: saline, higher = longer survival) was 97 % of control and 99 % of control (2×) and the T/C (endpoint: median survival time, dose: 50.0 mg/kg/injection, schedule: Q01DX010 (ip), vehicle: saline, higher = longer survival) was 29 % of control and 90 % of control (2×). For the same compound, the T/C (endpoint: median survival time, dose: 50.0 mg/kg/injection, schedule: Q07DX005 (ip), vehicle: saline, higher = longer survival) was 110 % of control, the T/C (endpoint: median survival time, dose: 100.0 mg/kg/injection, schedule: Q01DX001 (ip), vehicle: saline, higher = longer survival) was 114 % of control and 100 % of control (2×) and the T/C (endpoint: median survival time, dose: 100.0 mg/kg/injection, schedule: Q01DX010 (ip), vehicle: saline, higher = longer survival) was 29 % of control. The T/C (endpoint: median survival time, dose: 100.0 mg/kg/injection, schedule: Q07DX005 (ip), vehicle: saline, higher = longer survival) was 95 % of control, the T/C (endpoint: median survival time, dose: 200.0 mg/kg/injection, schedule: Q01DX001 (ip), vehicle: saline, higher = longer survival) was 107 % of control and the T/C (endpoint: median survival time, dose: 200.0 mg/kg/injection, schedule: Q01DX010 (ip), vehicle: saline, higher = longer survival) was 25 % of control. The T/C (endpoint: median survival time, dose: 400.0 mg/kg/injection, schedule: Q01DX001 (ip), vehicle: saline, higher = longer survival) was 29 % of control.

With C[C@]12C=CC(=O)C=C1CC[C@@H]1[C@@H]2C(=O)C[C@@]2(C)[C@H]1CC[C@]2(O)C(=O)CO the T/C (endpoint: mean tumor weight, dose: 0.31 mg/kg/injection, schedule: Q01DX010 (sc), vehicle: steriod suspending solution, higher = larger tumour) was 81 % of control, the T/C (endpoint: mean tumor weight, dose: 0.62 mg/kg/injection, schedule: Q01DX010 (sc), vehicle: steriod suspending solution, higher = larger tumour) was 124 % of control and the T/C (endpoint: mean tumor weight, dose: 3.1 mg/kg/injection, schedule: Q01DX010 (sc), vehicle: steriod suspending solution, higher = larger tumour) was 82 % of control. The T/C (endpoint: mean tumor weight, dose: 5.0 mg/kg/injection, schedule: Q01DX010 (sc), vehicle: steriod suspending solution, higher = larger tumour) was 59 % of control, the T/C (endpoint: mean tumor weight, dose: 6.25 mg/kg/injection, schedule: Q01DX010 (sc), vehicle: steriod suspending solution, higher = larger tumour) was 99 % of control and the T/C (endpoint: mean tumor weight, dose: 10.0 mg/kg/injection, schedule: Q01DX010 (sc), vehicle: steriod suspending solution, higher = larger tumour) was 83 % of control. For the same compound, the T/C (endpoint: mean tumor weight, dose: 10.0 mg/kg/injection, schedule: Q01DX010 (sc), vehicle: water, higher = larger tumour) was 105 % of control, the T/C (endpoint: mean tumor weight, dose: 20.0 mg/kg/injection, schedule: Q01DX010 (sc), vehicle: steriod suspending solution, higher = larger tumour) was 68 % of control and 74 % of control and the T/C (endpoint: mean tumor weight, dose: 20.0 mg/kg/injection, schedule: Q01DX010 (sc), vehicle: water, higher = larger tumour) was 108 % of control. The T/C (endpoint: mean tumor weight, dose: 40.0 mg/kg/injection, schedule: Q01DX010 (sc), vehicle: water, higher = larger tumour) was 100 % of control, the T/C (endpoint: mean tumor weight, dose: 60.0 mg/kg/injection, schedule: Q01DX001 (sc), vehicle: steriod suspending solution, higher = larger tumour) was 87 % of control and the T/C (endpoint: mean tumor weight, dose: 120.0 mg/kg/injection, schedule: Q01DX001 (sc), vehicle: steriod suspending solution, higher = larger tumour) was 34 % of control. For the same compound, the T/C (endpoint: median survival time, dose: 2.34 mg/kg/injection, schedule: Q01DX029 (ip), vehicle: saline, higher = longer survival) was 82 % of control, the T/C (endpoint: median survival time, dose: 4.67 mg/kg/injection, schedule: Q01DX025 (ip), vehicle: saline, higher = longer survival) was 96 % of control and the T/C (endpoint: median survival time, dose: 9.35 mg/kg/injection, schedule: Q01DX025 (ip), vehicle: saline, higher = longer survival) was 100 % of control. The T/C (endpoint: median survival time, dose: 9.35 mg/kg/injection, schedule: Q01DX029 (ip), vehicle: saline, higher = longer survival) was 98 % of control, the T/C (endpoint: median survival time, dose: 9.37 mg/kg/injection, schedule: Q01DX029 (ip), vehicle: saline, higher = longer survival) was 89 % of control and the T/C (endpoint: median survival time, dose: 18.7 mg/kg/injection, schedule: Q01DX025 (ip), vehicle: saline, higher = longer survival) was 88 % of control. The T/C (endpoint: median survival time, dose: 18.75 mg/kg/injection, schedule: Q01DX010 (ip), vehicle: saline, higher = longer survival) was 101 % of control, the T/C (endpoint: median survival time, dose: 37.5 mg/kg/injection, schedule: Q01DX025 (ip), vehicle: saline, higher = longer survival) was 75 % of control and the T/C (endpoint: median survival time, dose: 75.0 mg/kg/injection, schedule: Q01DX010 (sc), vehicle: saline, higher = longer survival) was 153 % of control. The T/C (endpoint: median survival time, dose: 75.0 mg/kg/injection, schedule: Q01DX025 (ip), vehicle: saline, higher = longer survival) was 59 % of control, the T/C (endpoint: median survival time, dose: 150.0 mg/kg/injection, schedule: Q01DX010 (sc), vehicle: saline, higher = longer survival) was 47 % of control and the T/C (endpoint: median survival time, dose: 150.0 mg/kg/injection, schedule: Q01DX025 (ip), vehicle: saline, higher = longer survival) was 46 % of control. For the same compound, the T/C (endpoint: median survival time, dose: 150.0 mg/kg/injection, schedule: Q01DX029 (ip), vehicle: saline, higher = longer survival) was 42 % of control, the T/C (endpoint: median survival time, dose: 300.0 mg/kg/injection, schedule: Q01DX010 (sc), vehicle: saline, higher = longer survival) was 39 % of control and the T/C (endpoint: median survival time, dose: 600.0 mg/kg/injection, schedule: Q01DX010 (sc), vehicle: saline, higher = longer survival) was 34 % of control.

With CCC(=O)O[C@H]1CC[C@H]2[C@@H]3CCC4=CC(=O)CC[C@]4(C)[C@H]3CC[C@]12C the T/C (endpoint: mean tumor weight, dose: 150.0 mg/kg/injection, schedule: Q01DX010 (sc), vehicle: steriod suspending solution, higher = larger tumour) was 108 % of control, the T/C (endpoint: mean tumor weight, dose: 300.0 mg/kg/injection, schedule: Q01DX010 (sc), vehicle: steriod suspending solution, higher = larger tumour) was 116 % of control and the T/C (endpoint: mean tumor weight, dose: 600.0 mg/kg/injection, schedule: Q01DX010 (sc), vehicle: steriod suspending solution, higher = larger tumour) was 104 % of control.

In the case of Cn1c(N)nc2nc[nH]c2c1=S, the T/C (endpoint: mean tumor weight, dose: 3.1 mg/kg/injection, schedule: Q01DX010 (ip), vehicle: carboxymethylcellulose (CMC), higher = larger tumour) is reported as 105 % of control, the T/C (endpoint: mean tumor weight, dose: 6.3 mg/kg/injection, schedule: Q01DX010 (ip), vehicle: carboxymethylcellulose (CMC), higher = larger tumour) is reported as 59 % of control and the T/C [1] is reported as 102 % of control. For the same compound, the T/C [2] was 91 % of control, the T/C (endpoint: mean tumor weight, dose: 20.0 mg/kg/injection, schedule: Q01DX010 (ip), vehicle: saline, higher = larger tumour) was 99 % of control and the T/C [3] was 101 % of control. The T/C (endpoint: mean tumor weight, dose: 40.0 mg/kg/injection, schedule: Q01DX010 (ip), vehicle: saline, higher = larger tumour) was 122 % of control and the T/C (endpoint: mean tumor weight, dose: 80.0 mg/kg/injection, schedule: Q01DX010 (ip), vehicle: saline, higher = larger tumour) was 114 % of control.
